Measurements as given in US4510149A, “N-Imidazolyl derivatives containing naphthalene or indene nucleus” (Farmitalia Carlo Erba S.p.A., priority 1982, dated 1985).
“Also recorded” adds a separate entry of the source.

Legend:
[1] = tested on: thromboxane A2 (TXA2) synthetase; settings: literature / prior filings; cited from earlier work
[2] = tested on: ADP-induced platelet aggregation; assay: in vitro inhibition of ADP-induced platelet aggregation in platelet rich plasma; format: cell-based; settings: guinea pig platelet rich plasma
Procedure: (§1) The platelet antiaggregatory activity of the compounds of the invention was evaluated in vitro and in vivo, for example, according to the modified methods of Born [Born G. V. R., Nature 194, 927 (1962)] and Silver [Silver M. J., Science 183, 1085 (1974)].
(§2) The compounds of this invention were found in vitro to have inhibitory activity on platelet aggregation induced by collagen or ADP (adenosine-5'-disphosphate) in platelet rich plasma of guinea pig [Dunkin Hantley Iva: PDH (SPF) Ivanovas GmBH, Germany].

[3] = tested on: collagen-induced platelet aggregation; assay: in vitro inhibition of collagen-induced platelet aggregation in platelet rich plasma; format: cell-based, guinea pig; settings: for inhibition at 12.5 µg/mL: in vitro concentration 12.50 mcg/ml
Procedure: as §1, §2

[4] = tested on: male rats fed standard diet; assay: Experiment No. 2: serum lipids in rats fed standard Altromin diet; format: in vivo, rat (Icem: CER (SPF Caw)); settings: 4 days
Procedure: (§3) The introduction of this new substituent in the new bicyclic compounds has therefore unexpectedly strenghtened these activities. The activity of this particular group of compounds of this invention and of the compounds of the above mentioned U.S. Patent and U.K. published Patent Application was evaluated on groups of Icem: CER (SPF Caw) male rats either fed for six days with hypercholesterolaemic diet according to C. E. Day [Schurr P. E., Schultz H. R., Day C. E. (Eds) Atherosclerosis and drug discovery--Plenum Pub. Corp., 217 (1976)] (Experiment No. 1) or fed standard diet [Altromin] (Experiment No. 2). "Altromin" is a trade mark.
(§4) The compounds were suspended in "Methocel" (methyl cellulose, a 0.5% suspension in water) and administered by stomach tube for 4 days.
(§5) Groups of animals were treated with the suspending agent only (control groups).
(§6) The total serum cholesterol was determined with the method of Trinder P. J. [J.Clin.Pathol., 22, 246 (1969)].
The serum triglycerides were determined with the method of Mendex J. [J. Clin. Chem., 21, 768, (1975)].
W.--J. Amer. Stat. Ass., 50, 1096 (1955)].

[5] = tested on: male rats fed hypercholesterolaemic diet; assay: Experiment No. 1: serum lipids in rats fed hypercholesterolaemic diet; format: in vivo, rat (Icem: CER (SPF Caw)); settings: 4 days
Procedure: as §3, §4, §5, §6
The total serum HDL cholesterol was determined according to Demacker P. N. M. [Clin. Chem., 23, 1238, (1977)].
Statistical analysis in experiment No. 1 was performed by the Student's t test for independent samples or by the Cochran's test when the variances were not homogeneous at the F ratio test [Bliss C. I.--Statistics in Biology, Vol. 1, page 213--Mc Graw Hill Book Company, New York, 1967; Cochran W. G., Cox G. M.--Experimental designs--J. Wiley & Sons Inc., New York, II Ed. (1968) page 100].

[6] = orientative acute toxicity, single oral administration, mice; settings: in vivo, mouse, same procedure
Procedure: The toxicity of the compounds of the invention is negligible, therefore they can be safely used in therapy. Nine hours food deprived mice and rats were treated orally with single administration of increasing doses, then housed and normally fed. The orientative acute toxicity (LD50) was assessed on the seventh day after the treatment and resulted higher than 3000 mg/kg.

male SHR rats = assay: development of hypertension in SHR rats, mean systemic pressure after seven weeks oral treatment; format: in vivo, rat (SHR)
Procedure: For example, one of the compound of this invention, i.e. compound FCE 22178, was given orally to nine male SHR rats for seven weeks at the dosage of 9 mg/kg.
The mean systemic pressure was monitored on an eight channels Beckman polygraph via a Statham pressure transducer, connected to a PE 60 catheter, inserted, 24 hours before monitored, into the left carotid artery.

PGI2 synthetase = assay: plasma 6-keto-PGF1α concentration in rats after single oral dose (activity on PGI2 synthetase in vivo); set-up: species or system rat; settings: 2 hours
Procedure: (§7) The activity on TxA2 and PGI2 synthetase has been evaluated in vivo. For example, rats were treated with a single oral dose of compound and killed 2 hours later. TxB2 and 6-keto-PGF1α concentrations, the stable metabolites of TxA2 and PGI2 respectively, were determined on serum and plasma respectively.

TxA2 synthetase = assay: serum TxB2 concentration in rats after single oral dose (activity on TxA2 synthetase in vivo); set-up: species or system rat; settings: 2 hours
Procedure: as §7

[7] = tested on: arachidonic acid (1.4 mg/kg) induced mortality in rabbits; assay: arachidonic acid induced mortality in rabbits; format: in vivo, rabbit (New Zealand White)
Procedure: as §1
The compound FCE 22178 was also suspended in Methocel® and administered orally by gavage to rabbits (New Zealand White) at 2 mg/kg one hour before the injection of 1.4 mg/kg of arachidonic acid.

c1c[nH]cn1 [imidazole]
inhibition of TxA2 synthetase [1]: able to inhibit; also recorded: only a very weak TXA2 inhibiting effect

COc1ccc2c(c1)C=C(n1ccnc1)CC2 [FCE 22466, 1,2-dihydro-3-(1-imidazolyl)-6-methoxy-naphthalene]
activity on ADP-induced platelet aggregation [2]: active
inhibition of collagen-induced platelet aggregation ([3]; 25 mcg/ml): totally inhibits collagen-induced platelet aggregation in three out of four samples
inhibition at 12.33 µg/mL ([3]; Cavia porcellus, Platelet, in vitro concentration 12.33 mcg/ml): 50%
activity on collagen-induced platelet aggregation ([3]; in vitro, guinea pig platelet rich plasma): active

CC(C)(Oc1ccc2c(c1)C=C(n1ccnc1)CC2)C(=O)O [FCE 22473, 1,2-dihydro-3-(1-imidazolyl)-6-(2-carboxy-isopropoxy)-naphthalene]
Serum triglycerides, % variation vs. controls ([4]; 16.67 mg/kg/os): -57 % variation vs. controls
Total serum cholesterol, % variation vs. controls ([4]; 16.67 mg/kg/os): -32 % variation vs. controls
Serum HDL cholesterol, % variation vs. controls ([5]; 27 mg/kg/os): +77 % variation vs. controls
Total serum cholesterol, % variation vs. controls ([5]; 27 mg/kg/os): -73 % variation vs. controls

C1=C(Cn2ccnc2)CCc2ccccc21 [1,2-dihydro-3-(1-imidazolylmethyl)-naphthalene]
LD50 at 168 h [6]: < 200 mg/kg

O=C(O)c1ccc2c(c1)C=C(n1ccnc1)CC2 [FCE 22178, 1,2-dihydro-3-(1-imidazolyl)-6-carboxy-naphthalene]
development of hypertension (male SHR rats; 9 mg/kg orally for seven weeks): decreased the development of hypertension
Mean systemic pressure, Treated (male SHR rats; 9 mg/kg orally, 7 weeks, controls 177 ± 5.06): 154.8 ± 14.1 mm Hg ± E.S.
change of plasma 6-keto-PGF1α concentration (PGI2 synthetase; 100 mg/kg): doubled
increase of plasma 6-keto-PGF1α concentration (PGI2 synthetase; dosed up to 9 mg/kg): up to 30%
reduction of serum TxB2 concentration (TxA2 synthetase; 100 mg/kg): 90%
reduction of serum TxB2 concentration (TxA2 synthetase; dosed up to 9 mg/kg): up to 70%
effect on arachidonic acid induced mortality ([7]; 2 mg/kg orally): greatly decreases
Mortality ([7]; 2 mg/kg/os, one hour before arachidonic acid 1.4 mg/kg, Methocel control 9/9): 3/9

COc1ccc2c(c1)C(=O)C(n1ccnc1)CC2 (stereo not shown) [FCE 21848, 2-(1-imidazolyl)-3,4-dihydro-7-methoxy-1(2H)-naphthalenone, reference compound]
inhibition at 12.5 µg/mL ([3]; Cavia porcellus, Platelet): 0%
Serum triglycerides, % variation vs. controls ([4]; 50.00 mg/kg/os): inactive
Total serum cholesterol, % variation vs. controls ([4]; 50.00 mg/kg/os): inactive

O=C1c2cc(Cl)ccc2OCC1n1ccnc1 (stereo not shown) [FCE 20204, 3-(1-imidazolyl)-2,3-dihydro-6-chloro-4H-1-benzopyran-4-one, reference compound]
inhibition at 12.5 µg/mL ([3]; Cavia porcellus, Platelet): 0%
Serum HDL cholesterol, % variation vs. controls ([5]; 25 mg/kg/os): +49 % variation vs. controls
Total serum cholesterol, % variation vs. controls ([5]; 25 mg/kg/os): +7 % variation vs. controls

COc1ccc2c(c1)CCC(Cn1ccnc1)=C2 [1,2-dihydro-3-(1-imidazolylmethyl)-7-methoxy-naphthalene]
LD50 at 168 h [6]: < 200 mg/kg
